# Measured values as given in patent US4405609A, “Combination and method for increasing feed utilization efficiency in ruminants” (Eli Lilly and Company, priority 1982, dated 1983).
# Key:
# [1] = tested on: Hereford crossbred steers; test: 140-day narasin/actaplanin feed study; format: in vivo
# Excerpt: Another study was designed to show the unexpected interaction of the polyether narasin in combination with actaplanin. Two hundred forty Hereford crossbred steers averaging about 700 pounds and about 18 months of age were employed. The animals were fed corn silage and high moisture corn, plus two pounds per head per day of the following cattle supplement:
# The treatments comprised three dose levels of narasin (0, 4 and 12 g./T.) and four dose levels of actaplanin (0, 10, 20 and 40 g./T.). The animals were randomly assigned to four blocks of twelve partially sheltered pens, each with five animals per pen. The treatments were allotted at random within the four 12-pen blocks such that each treatment was represented in each block. Each of the twelve treatments was replicated four times.
# [2] = tested on: feeder calves; test: in vivo evaluation of monensin and actaplanin in feeder calves on high-grain ration; conditions: 30 grams per ton of each agent in feed
# Excerpt: For example, in a typical in vivo evaluation of the combination of monensin and actaplanin, feeder calves were fed a high-grain ration such as that recited above. Fifteen control animals received the feed ration with no feed efficiency enhancer additive. Another group of fifteen calves received the feed ration containing monensin at 30 grams per ton, while a third group of fifteen animals received the feed ration with actaplanin at 30 grams per ton. A combination of 30 grams per ton of monensin and 30 grams per ton of actaplanin was administered as a feed additive to the ration consumed by a fourth group of fifteen test animals. […] The feed efficiency of such control group, calculated as the pounds of feed consumption required for one pound of animal weight gain, was 13.49.
# [3] = tested on: rumen fluid; test: in vitro rumen fluid fermentor assay of propionate production; format: cell-based, steers; conditions: ± SD
# Excerpt: Rumen fluid was obtained from steers which had surgically-installed fistula openings into the rumen. The steers were maintained on a high-grain ration such as the one described above.
# A sample of rumen fluid was strained through four layers of cheese cloth and the eluate was collected in vacuum bottles. The particulate matter retained by the cheese cloth was resuspended in enough physiological buffer to return it to the original volume of the rumen fluid, and the eluate was strained again. The buffer utilized is described by Cheng et al., J. Dairy Sci., 38, 1225 (1955).
# The two eluates were combined in a separatory funnel and allowed to stand until any remaining particulate matter separated to the top. The clear liquid layer then was removed, diluted with an equal volume of the above-mentioned buffer, and the pH of the solution was adjusted to 7.0.
# Fermenter flasks were then changed with the rumen liquor thus prepared. Two fermentor flasks were used per each treatment group. The fermentor flasks were allowed to stand for four days for equilibration, and then measurements of proprionate production were made daily for six days in order to establish a control. Measurements were made by gas chromatographic methods. The fermenter flasks were then fed 20 grams per day of a finely ground ration composed of 20 percent high concentrate ration and 80 percent alfalfa hay. The individual feed efficiency enhancers, and the composition of such enhancers provided by this invention, were added to the feed and dried thereon prior to introduction of the feed ration into the fermentor flasks. The feed ration was introduced into the flasks approximately two times each day. After the initial administration of active ingredient, two days were allowed for reequilibration, and then the volatile fatty acid (VFA) production in each flask was monitored by gas chromatography for five days.
# [4] = tested on: Hereford crossbred steers; test: 140-day monensin/actaplanin feed study, corn silage diet; format: in vivo
# Description: The animals were divided into a control group and into eleven test groups. All animals were fed a corn silage diet ad libitum once daily throughout the 140-day study, plus two pounds per head per day of the following cattle supplement:
# Test compounds were formulated as a premix with 50 percent by weight of ground corn cobs and 48 percent by weight of ground corn. The premixes were added to the corn silage feed rations in amounts necessary to provide the desired doses of active ingredients to the test animals. The data are presented as the average for the entire group of animals receiving a particular dose of active agent.
# In the foregoing table, the Feed Efficiency value is calculated by dividing the average amount of feed consumed (pounds of dry matter intake) by the average daily gain in weight (in pounds). Ideally, the animals will gain more weight on less feed intake. Accordingly, the most improvement in feed utilization efficiency is represented by smaller numbers. […] The optimum in this experiment was 10 g./T. of monensin and 40 g./T. of actaplanin which produced a 13.5% improvement in feed efficiency over untreated controls.
# [5] = tested on: steers; test: combined data of the three steer studies, percentage response versus untreated controls; format: in vivo
# Excerpt: The following figures report such data expressed as a percentage response when compared with untreated control animals.
# [6] = tested on: steers; test: further analysis of feed efficiency data: expected versus observed change; format: in vivo
# Excerpt: When the components are utilized in amounts that are about their respective optimal dose levels when used alone, the combination causes an unexpected increase in feed utilization efficiency, which is believed the result of continued unexpected interaction. The results of this further analysis of data is presented below:
# In the foregoing table, Δ is the change in feed efficiency of the treated group over the nontreated group. […] The change in efficiency is thus 0.14. The term "EΔ" is the change in efficiency expected with a combination, and is arrived at by adding the Δ values of the individual components at the appropriate dose levels. The term "OΔ" is the change in efficiency over nontreated controls actually observed with animals receiving the combination.
# [7] = dose giving largest increase in propionate production
# Excerpt: The compositions provided herein comprise a polyether as defined above and a glycopeptide as defined above. The respective components will be present on a weight basis in a ratio of about 1 to about 10 parts polyether together with about 1 to about 10 parts glycopeptide. For example, a polyether such as narasin will be employed at a concentration level of about 1 to about 20 grams per ton of ruminant feedstuff, together with a glycopeptide such as avoparcin or actaplanin at a concentration level of about 5 to about 50 grams per ton of ruminant feedstuff. A particularly preferred embodiment of the invention is a combination of narasin at about 2 to about 10 grams per ton of feedstuff, and actaplanin at about 5 to about 20 grams per ton. […] Typically, the maximal doses of each component to be employed in accordance with the present invention are substantially the same as the maximal doses for effective growth promotion and feed utilization enhancement by the individual components. […] Similarly, actaplanin at a dose of about 30 grams per ton of feed effects the largest increase in propionate production observed with that agent. […]
# [8] = tested on: Hereford crossbred steers; test: 154-day trial of monensin (30 g./T.) with actaplanin; format: in vivo
# Excerpt: In another study, two hundred Hereford crossbred steers averaging about 565 pounds were employed in a 154-day trial to determine the efficacy of combinations of monensin (at 30 g./T.) and actaplanin (at 20 g./T., 40 g./T. and 60 g./T.). The steers were fed a corn silage or corn-soya-cob roughage diet ad libitum once a day, together with a cattle supplement. The animals were divided into five treatment groups of forty steers each. These treatment groups were maintained in open pens; five animals per pen so that each treatment group comprised eight pens. Individual treatments were then assigned at random to each of the eight pens so that each treatment was replicated […] within each ration group.
# [9] = tested on: ruminants; conditions: Raun et al., J. Ani. Sci. 43, 670 (1976); cited from earlier work
# [10] = monensin 0, actaplanin 10 grams/Ton
# [11] = monensin 0, actaplanin 20 grams/Ton
# [12] = monensin 0, actaplanin 40 grams/Ton
# [13] = polyether 0, actaplanin 10 g./T.
# [14] = polyether 0, actaplanin 20 g./T.
# [15] = polyether 0, actaplanin 40 g./T.
# [16] = monensin 10, actaplanin 0 grams/Ton
# [17] = monensin 30, actaplanin 0 grams/Ton
compound,measurement,setting,value
CC[C@@H](C(=O)O)[C@@H]1O[C@@H]([C@@H](C)[C@H](O)[C@H](C)C(=O)[C@H](CC)[C@H]2O[C@]3(C=C[C@@H](O)[C@]4(CC[C@@](C)([C@H]5CC[C@](O)(CC)[C@H](C)O5)O4)O3)[C@H](C)C[C@@H]2C)[C@@H](C)C[C@@H]1C [narasin],Average Daily Dry Matter Intake,"[1]; narasin 4, actaplanin 0 g./T.",16.41 Pounds
same,Average Daily Weight Gain,"[1]; narasin 4, actaplanin 0 g./T.",2.53 Pounds
same,Average Feed Efficiency,"[1]; narasin 4, actaplanin 0 g./T.",6.46
same,Average Daily Dry Matter Intake,"[1]; narasin 12, actaplanin 0 g./T.",15.52 Pounds
same,Average Daily Weight Gain,"[1]; narasin 12, actaplanin 0 g./T.",2.52 Pounds
same,Average Feed Efficiency,"[1]; narasin 12, actaplanin 0 g./T.",6.18
same,decrease in feed intake versus untreated controls,[1]; narasin alone at 12 g./T.,7.2%
actaplanin,Average Daily Weight Gain,[2],1.38 pounds
same,feed efficiency (pounds of feed consumption required for one pound of animal weight gain),[2],12.36
same,Propionate Production,"[3]; Monensin 0 PPM, Actaplanin 1 PPM",13.0 ± 2.0 mM/24 hours
same,Propionate Production,"[3]; Monensin 0 PPM, Actaplanin 4 PPM",19.9 ± 3.0 mM/24 hours
same,Average Daily Dry Matter Intake,[4]; [10],12.86 lbs
same,Average Daily Dry Matter Intake % change from control,[4]; [10],+4.1%
same,Average Daily Weight Gain,[4]; [10],2.44 lbs
same,Average Daily Weight Gain % change over control,[4]; [10],+9.4%
same,Feed Efficiency,[4]; [10],5.28
same,Feed Efficiency % change from control,[4]; [10],-4.9%
same,Average Daily Dry Matter Intake,[4]; [11],12.86 lbs
same,Average Daily Dry Matter Intake % change from control,[4]; [11],+4.1%
same,Average Daily Weight Gain,[4]; [11],2.37 lbs
same,Average Daily Weight Gain % change over control,[4]; [11],+6.3%
same,Feed Efficiency,[4]; [11],5.43
same,Feed Efficiency % change from control,[4]; [11],-2.0%
same,Average Daily Dry Matter Intake,[4]; [12],12.47 lbs
same,Average Daily Dry Matter Intake % change from control,[4]; [12],+1.0%
same,Average Daily Weight Gain,[4]; [12],2.39 lbs
same,Average Daily Weight Gain % change over control,[4]; [12],+7.2%
same,Feed Efficiency,[4]; [12],5.22
same,Feed Efficiency % change from control,[4]; [12],-6.1%
same,feed intake (in words),[1]; actaplanin alone at 20 g./T.,slight decrease in feed intake
same,improved daily gains,[1]; actaplanin alone at 20 g./T.,5.9%
same,Average Daily Dry Matter Intake,"[1]; narasin 0, actaplanin 10 g./T.",16.47 Pounds
same,Average Daily Weight Gain,"[1]; narasin 0, actaplanin 10 g./T.",2.54 Pounds
same,Average Feed Efficiency,"[1]; narasin 0, actaplanin 10 g./T.",6.47
same,Average Daily Dry Matter Intake,"[1]; narasin 0, actaplanin 20 g./T.",16.51 Pounds
same,Average Daily Weight Gain,"[1]; narasin 0, actaplanin 20 g./T.",2.66 Pounds
same,Average Feed Efficiency,"[1]; narasin 0, actaplanin 20 g./T.",6.19
same,Average Daily Dry Matter Intake,"[1]; narasin 0, actaplanin 40 g./T.",16.02 Pounds
same,Average Daily Weight Gain,"[1]; narasin 0, actaplanin 40 g./T.",2.59 Pounds
same,Average Feed Efficiency,"[1]; narasin 0, actaplanin 40 g./T.",6.18
same,"Combined Daily Gain Data, percentage response compared with untreated control",[5]; [13],5.5 percentage
same,"Combined Feed Efficiency Data, percentage response compared with untreated control",[5]; [13],1.3 percentage
same,"Combined Daily Gain Data, percentage response compared with untreated control",[5]; [14],6.6 percentage
same,"Combined Feed Efficiency Data, percentage response compared with untreated control",[5]; [14],4.4 percentage
same,"Combined Daily Gain Data, percentage response compared with untreated control",[5]; [15],6.3 percentage
same,"Combined Feed Efficiency Data, percentage response compared with untreated control",[5]; [15],5.8 percentage
same,"Δ, change in feed efficiency of the treated group over the nontreated group",[6]; actaplanin 10 g./T. alone,0.09
same,"Δ, change in feed efficiency of the treated group over the nontreated group",[6]; actaplanin 20 g./T. alone,0.28
same,"Δ, change in feed efficiency of the treated group over the nontreated group",[6]; actaplanin 40 g./T. alone,0.36
same,Feed efficiency (feed to gain ratio),"[6]; monensin 0, actaplanin 10 g./T.",6.00
same,Feed efficiency (feed to gain ratio),"[6]; monensin 0, actaplanin 20 g./T.",5.81
same,Feed efficiency (feed to gain ratio),"[6]; monensin 0, actaplanin 40 g./T.",5.73
same,dose that effects the largest increase in propionate production observed with that agent,[7],about 30 grams per ton of feed
monensin,Average Daily Weight Gain,[2],1.42 pounds
same,feed efficiency (pounds of feed consumption required for one pound of animal weight gain),[2],12.05
same,Propionate Production,"[3]; Monensin 0.5 PPM, Actaplanin 0 PPM",14.2 ± 1.7 mM/24 hours
same,Propionate Production,"[3]; Monensin 3 PPM, Actaplanin 0 PPM",18.4 ± 3.2 mM/24 hours
same,Average Daily Dry Matter Intake,[4]; [16],13.54 lbs
same,Average Daily Dry Matter Intake % change from control,[4]; [16],+9.6%
same,Average Daily Weight Gain,[4]; [16],2.45 lbs
same,Average Daily Weight Gain % change over control,[4]; [16],+9.9%
same,Feed Efficiency,[4]; [16],5.52
same,Feed Efficiency % change from control,[4]; [16],-0.3%
same,Average Daily Dry Matter Intake,[4]; [17],12.94 lbs
same,Average Daily Dry Matter Intake % change from control,[4]; [17],+4.8%
same,Average Daily Weight Gain,[4]; [17],2.39 lbs
same,Average Daily Weight Gain % change over control,[4]; [17],+7.2%
same,Feed Efficiency,[4]; [17],5.42
same,Feed Efficiency % change from control,[4]; [17],-2.2%
same,Average Daily Dry Matter Intake,[8]; [17],16.79 lbs
same,Average Daily Weight Gain,[8]; [17],2.41 lbs
same,Feed Efficiency,[8]; [17],7.01
same,increase in feed efficiency versus control,[8]; monensin alone (30 g./T.),6.4%
same,"Δ, change in feed efficiency of the treated group over the nontreated group",[6]; monensin 10 g./T. alone,0.14
same,Feed efficiency (feed to gain ratio),"[6]; monensin 10 g./T., actaplanin 0",5.95
same,"Δ, change in feed efficiency of the treated group over the nontreated group",[6]; monensin 30 g./T. alone,0.39
same,Feed efficiency (feed to gain ratio),"[6]; monensin 30 g./T., actaplanin 0",5.70
same,dosage level of maximal improvement in feed efficiency,[9],about 33 ppm
same,dose level of maximal improvement in feed efficiency,[9],about 30 grams per ton of feed
